Measured values taken from PMC8822125, “RW-BP100-4D, a Promising Antimicrobial Candidate With Broad-Spectrum Bactericidal Activity” (Frontiers in Microbiology, 2022).
Values after ≈ are worked out from the molar mass of the structure shown. Values joined by “and” are separate entries in the source; they are usually repeats but may differ in a detail not shown here. Equal entries are not always repeated. Where a SMILES comes first, the peptide text is derived from it.

Tests used:
[1] = tested on: RAW264.7 cells; conditions: peptide 150 μg/mL, 24 h, WST-1, mean ± SD, three repeats
[2] = tested on: S. aureus ATCC29213 biofilm formation; conditions: peptide 6.25 μg/mL, 24 h, 37°C, crystal violet OD590
[3] = target: papain (Carica papaya, UniProt P00784); conditions: 100 μg/mL peptide, papain 1 mg/mL, 37°C, 1 h; decrease of HPLC peak area (C8, UV 220 nm)
Sequence of papain (P00784 134-345): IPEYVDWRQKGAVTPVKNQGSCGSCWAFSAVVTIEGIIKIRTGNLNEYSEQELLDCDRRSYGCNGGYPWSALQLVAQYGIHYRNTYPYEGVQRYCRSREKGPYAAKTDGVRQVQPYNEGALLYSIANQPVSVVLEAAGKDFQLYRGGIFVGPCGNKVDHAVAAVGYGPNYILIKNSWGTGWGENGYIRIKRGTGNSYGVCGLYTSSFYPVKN

[4] = tested on: E. coli ATCC25922, S. aureus ATCC29213, and C. albicans ATCC10231; experiment: Stress stability, fold change of MIC against the three reference strains; format: cell-based; conditions: proteinase K 1 mg/mL, 37°C, 1 h
[5] = tested on: trypsin; experiment: in vitro
[6] = tested on: Staphylococcus aureus ATCC33591; conditions: Staphylococcus aureus ATCC33591 (mecA); mean of three repeated experiments
[7] = tested on: S. aureus ATCC29213; conditions: 1 h, mean of three
[8] = tested on: C. albicans ATCC10231; conditions: 1 h, mean of three
Experimental: To evaluate the thermal and pH stability of RW-BP100-4D, 100 μL of the peptide (100 μg/mL, in PBS buffer) was incubated under different temperatures (40, 50, 60, 70, 80, 90, and 100°C, pH 7) or different pHs (2, 3, 4, 5, 6, 7, 8 and 9, 37°C) for 1 h ([Song et al., 2020]). After incubation, the pH of the peptide solutions was adjusted to 7.0 using NaOH or HCl. For protease and serum stability test, 100 μL of RW-BP100-4D (100 μg/mL) was incubated with proteinase K (1 mg/mL), trypsin (1 mg/mL), papain (1 mg/mL), or sterile calf serum at 37°C for 1 h, respectively ([Song et al., 2020]). After the treatments, the proteases and calf serum were inactivated by heating at 80°C for 30 min. The remnant activity of the treated RW-BP100-4D was evaluated by determining the MICs against E. coli ATCC25922, S. aureus ATCC29213, and C. albicans ATCC10231 using broth microdilution method. RW-BP100-4D without any treatment was used as the control and each test was conducted with three independent repeats. Moreover, degradation rate (%) was estimated as the percentage of degraded peptide calculated from the decrease of the high-performance liquid chromatography (HPLC) peak area of the native peptide. HPLC analysis was performed using the Agilent™ 1100 Series equipped with an Agilent analysis column (ZORBAX RX-C8, 2.1 mm × 150 mm, 5 μm) and an UV detector at 220 nm. Mobile phase was composed of A (H2O) and B (acetonitrile), which contained 0.065% trifluoroacetic (v/v) and 0.05% trifluoroacetic (v/v), respectively.

[9] = tested on: Candida albicans ATCC10231; experiment: MIC/MBC, broth microdilution (CLSI M38); format: cell-based
[10] = tested on: Escherichia coli O157:H7; experiment: MIC/MBC, broth microdilution; format: cell-based; conditions: mean of three repeated experiments
[11] = tested on: various microorganisms; experiment: MIC/MBC, summary statements over several strains; format: cell-based
[12] = 100 μg/mL in PBS, 1 h
[13] = tested on: Staphylococcus aureus ATCC29213; experiment: MIC/MBC, broth microdilution; format: cell-based
[14] = tested on: E. coli ATCC25922; conditions: 1 h, mean of three
[15] = in vitro; conditions: calf serum
[16] = tested on: Fusarium oxysporum LD21; experiment: MIC/MBC, broth microdilution (CLSI M38); format: cell-based
[17] = tested on: sheep red blood cells; conditions: sheep red blood cells in PBS, 37°C, 1 h, OD576, relative to melittin, mean ± SD, three repeats;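 note: hemolysis expressed in % from supernatant absorbance, with PBS-treated cells as 0% baseline and melittin as 100%, peptide mixed 1:1 with an 8% v/v erythrocyte suspension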
[18] = tested on: Escherichia coli ATCC25922
[19] = tested on: MAC-T cells; conditions: peptide 150 μg/mL, 24 h, WST-1, mean ± SD, three repeats
[20] = 100 μg/mL peptide in PBS, pH 7, 40-80 ℃, then broth microdilution
[21] = 100 μg/mL peptide in PBS, pH 7, 90 ℃
[22] = 100 μg/mL peptide in PBS, pH 7, 100 ℃
[23] = 100 μg/mL peptide with papain 1 mg/mL, 37°C, protease inactivated 80°C 30 min
[24] = 100 μg/mL peptide with sterile calf serum, 37°C, serum inactivated 80°C 30 min
[25] = 100 μg/mL peptide with trypsin 1 mg/mL, 37°C, protease inactivated 80°C 30 min
[26] = 100 μg/mL peptide, pH 2-7, 37°C, then adjusted to pH 7.0
[27] = 100 μg/mL peptide, pH 8-9, 37°C, then adjusted to pH 7.0
[28] = CLSI M38, mean of three repeated experiments
[29] = mean of three repeated experiments
[30] = Table 1, broth microdilution CLSI M100-S25, MH broth, 37°C, 18 h, three independent repeats

CC[C@H](C)[C@H](NC(=O)[C@H](CCCNC(=N)N)NC(=O)[C@H](CCCNC(=N)N)NC(=O)[C@@H](Cc1ccccc1)NC(=O)[C@H](CC(C)C)NC(=O)[C@H](CCCNC(=N)N)NC(=O)[C@@H](N)CCCNC(=N)N)C(=O)N[C@@H](CC(C)C)C(=O)N[C@@H](CCCNC(=N)N)C(=O)N[C@@H](Cc1c[nH]c2ccccc12)C(=O)N[C@@H](CC(C)C)C(N)=O [RW-BP100-4D] (HELM PEPTIDE1{R.R.L.[dF].R.R.I.L.R.W.L.[am]}$$$$V2.0)
Cell survival rate, RAW264.7 [1]: 78.02 ± 7.66% | Biofilm inhibited compared with the PBS control [2]: 82.3% | Degradation, papain [3]: >90% | MICs after treatment with proteinase K, fold of the original level [4]: 4–8 fold | metabolised at 1 h, 100 μg/mL [5]: > 90% | MBC of peptides [6]: 6 µg/mL | MIC of peptides [6]: 6 µg/mL and 3 µg/mL | MIC of RW-BP100-4D against S. aureus ATCC29213 after 40-80 ℃ [7, 20]: 3 µg/mL | MIC of RW-BP100-4D against S. aureus ATCC29213 after 90 ℃ [7, 21]: 6 µg/mL | MIC of RW-BP100-4D against S. aureus ATCC29213 after 100 ℃ [7, 22]: 25 µg/mL | MIC of RW-BP100-4D against S. aureus ATCC29213 after papain [7, 23]: >50 µg/mL | MIC of RW-BP100-4D against S. aureus ATCC29213 after calf serum [7, 24]: >50 µg/mL | MIC of RW-BP100-4D against S. aureus ATCC29213 after trypsin [7, 25]: >50 µg/mL | MIC of RW-BP100-4D against S. aureus ATCC29213 after pH 2-7 [7, 26]: 3 µg/mL | MIC of RW-BP100-4D against S. aureus ATCC29213 after pH 8-9 [7, 27]: 12 µg/mL | MIC of RW-BP100-4D against C. albicans ATCC10231 after 40-80 ℃ [8, 20]: 12 µg/mL | MIC of RW-BP100-4D against C. albicans ATCC10231 after 90 ℃ [8, 21]: 25 µg/mL | MIC of RW-BP100-4D against C. albicans ATCC10231 after 100 ℃ [8, 22]: 50 µg/mL | MIC of RW-BP100-4D against C. albicans ATCC10231 after papain [8, 23]: >50 µg/mL | MIC of RW-BP100-4D against C. albicans ATCC10231 after calf serum [8, 24]: >50 µg/mL | MIC of RW-BP100-4D against C. albicans ATCC10231 after trypsin [8, 25]: >50 µg/mL | MIC of RW-BP100-4D against C. albicans ATCC10231 after pH 2-7 [8, 26]: 12 µg/mL | MIC of RW-BP100-4D against C. albicans ATCC10231 after pH 8-9 [8, 27]: 25 µg/mL | MIC of peptides [9, 28]: 12 µg/mL | MBC of peptides [9, 29]: 25 µg/mL | MBC of peptides [10]: 6 µg/mL | MIC of peptides [10]: 3 µg/mL | MICs against the selected Gram-negative bacterial isolates ([11]; E. coli, Salmonella enterica, K. pneumoniae, C. jejuni, A. baumannii, Pseudomonas spp., S. putrefaction, range over strains): 3 to 25 µg/mL | MIC against S. aureus ATCC29213 and E. coli ATCC25922 (both strains together) ([11]; summary of Table 1): 3 to 12 µg/mL | Degradation, 40-80 ℃ ([12]; pH 7, 40-80 ℃, decrease of HPLC peak area (C8, UV 220 nm) of native peptide): 0% | Degradation, 90 ℃ ([12]; pH 7, 90 ℃, decrease of HPLC peak area (C8, UV 220 nm)): 56% | Degradation, 100 ℃ ([12]; pH 7, 100 ℃, decrease of HPLC peak area (C8, UV 220 nm)): 82% | MIC Staphylococcus aureus ATCC29213 [13, 30]: 3 µg/mL (≈ 1.89 µM) | MIC of peptides ([13]; Table 2, Staphylococcus aureus ATCC29213, mean of three repeated experiments): 6 µg/mL and 3 µg/mL | MIC of RW-BP100-4D against E. coli ATCC25922 after 40-80 ℃ [14, 20]: 6 µg/mL | MIC of RW-BP100-4D against E. coli ATCC25922 after 90 ℃ [14, 21]: 12 µg/mL | MIC of RW-BP100-4D against E. coli ATCC25922 after 100 ℃ [14, 22]: 25 µg/mL | MIC of RW-BP100-4D against E. coli ATCC25922 after papain [14, 23]: >50 µg/mL | MIC of RW-BP100-4D against E. coli ATCC25922 after calf serum [14, 24]: >50 µg/mL | MIC of RW-BP100-4D against E. coli ATCC25922 after trypsin [14, 25]: >50 µg/mL | MIC of RW-BP100-4D against E. coli ATCC25922 after pH 2-7 [14, 26]: 6 µg/mL | MIC of RW-BP100-4D against E. coli ATCC25922 after pH 8-9 [14, 27]: 12 µg/mL | metabolised at 1 h, 100 μg/mL [15]: > 90% | MIC of peptides [16, 28]: 12 µg/mL | MBC of peptides [16, 29]: 25 µg/mL | Hemolytic rate, 50 μg/mL ([17]; 50 μg/mL peptide): 0.11 ± 0.19% | Hemolytic rate, 100 μg/mL ([17]; 100 μg/mL peptide): 3.69 ± 0.01% | Hemolytic rate, 150 μg/mL ([17]; 150 μg/mL peptide): 18.75 ± 0.42% | Hemolytic rate, 300 μg/mL ([17]; 300 μg/mL peptide): 48.55 ± 2.53% | MBC of peptides ([18]; Escherichia coli ACTT25922, mean of three repeated experiments): 12 µg/mL | MIC Escherichia coli ATCC25922 [18, 30]: 6 µg/mL (≈ 3.79 µM) | MIC of peptides ([18]; Table 2, Escherichia coli ACTT25922, mean of three repeated experiments): 6 µg/mL | Cell survival rate, MAC-T [19]: 92.68 ± 3.65%
